Test results published in patent US20220177471A1, “N-1 BRANCHED ALKYL SUBSTITUTED IMIDAZO[4,5-C]QUINOLINE COMPOUNDS, COMPOSITIONS, AND METHODS” (3M INNOVATIVE PROPERTIES COMPANY, priority 2019, published 2022).

Columns and labels:
human TLR7 = biological target: T1, human TLR7 (Homo sapiens, UniProt Q9NYK1); test: TLR activation, HEK-BLUE-hTLR7 SEAP reporter cells; type: cell-based; conditions: 16-20 hours, lowest concentration giving SEAP response at least 2x vehicle control, tested 0.01-30 micromolar
T1 construct: host or cells: HEK293 (HEK-BLUE-hTLR7)
T1 sequence (Q9NYK1 27-1049): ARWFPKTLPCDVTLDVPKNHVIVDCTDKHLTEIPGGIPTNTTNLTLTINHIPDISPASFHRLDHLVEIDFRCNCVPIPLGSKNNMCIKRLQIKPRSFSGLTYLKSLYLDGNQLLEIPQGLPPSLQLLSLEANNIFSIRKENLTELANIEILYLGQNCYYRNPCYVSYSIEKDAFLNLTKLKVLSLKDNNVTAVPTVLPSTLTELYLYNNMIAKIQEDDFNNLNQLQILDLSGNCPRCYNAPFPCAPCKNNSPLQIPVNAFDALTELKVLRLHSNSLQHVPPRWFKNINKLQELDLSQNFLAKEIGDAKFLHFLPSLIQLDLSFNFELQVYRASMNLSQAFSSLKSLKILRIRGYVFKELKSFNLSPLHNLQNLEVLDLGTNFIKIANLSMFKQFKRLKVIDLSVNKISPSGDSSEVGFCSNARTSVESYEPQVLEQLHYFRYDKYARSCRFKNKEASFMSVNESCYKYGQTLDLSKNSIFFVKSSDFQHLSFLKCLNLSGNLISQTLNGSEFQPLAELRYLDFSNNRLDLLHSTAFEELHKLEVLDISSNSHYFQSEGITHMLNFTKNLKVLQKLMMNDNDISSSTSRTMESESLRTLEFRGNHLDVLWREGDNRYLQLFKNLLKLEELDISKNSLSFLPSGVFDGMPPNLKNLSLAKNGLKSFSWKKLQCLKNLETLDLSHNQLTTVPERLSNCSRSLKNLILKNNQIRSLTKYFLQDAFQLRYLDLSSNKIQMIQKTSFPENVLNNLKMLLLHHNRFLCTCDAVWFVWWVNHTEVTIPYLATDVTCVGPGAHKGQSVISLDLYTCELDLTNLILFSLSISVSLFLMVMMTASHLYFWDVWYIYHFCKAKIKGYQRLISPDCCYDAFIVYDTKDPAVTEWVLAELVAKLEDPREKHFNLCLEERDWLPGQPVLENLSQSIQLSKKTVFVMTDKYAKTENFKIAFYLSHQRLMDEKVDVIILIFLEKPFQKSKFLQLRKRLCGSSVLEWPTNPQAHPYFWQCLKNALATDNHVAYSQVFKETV
Method: (§1) HEK-BLUE-hTLR7 or hTLR8 reporter cells were obtained from InvivoGen, San Diego, Calif. According to the manufacturer's description, these reporter cells were prepared by co-transfection of HEK293 cells with an inducible secreted embryonic alkaline phosphatase (SEAP) reporter gene and either the human TLR7 or TLR8 gene. The SEAP reporter gene was placed under the control of an IFN-β minimal promoter fused to five NF-κB and AP-1-binding sites. In the presence of a TLR ligand, activation of NF-κB and AP-1 occurs, resulting in a corresponding increase in SEAP levels.
(§2) In the assay, the HEK cells were grown and maintained using standard cell culture techniques in a growth medium that contained Dulbecco's Modified Eagle Medium (ThermoFisher Scientific Incorporated, Waltham, Mass.) supplemented with 1% penicillin/streptomycin and 10% heat-inactivated Gibco fetal bovine serum (ThermoFisher Scientific). Each compound was solubilized in DMSO to create a 3 mM stock solution. The stock solution was then further diluted with the growth medium to prepare serial dilutions. Each test compound was tested at a concentration of 30, 10, 3.3, 1.1, 0.37, 0.12, 0.04, and 0.01 micromolar using a 96-well format with 5×10^4 cells and 200 microliters of growth medium per well.
(§3) For each compound, hTLR7, hTLR8, and their respective null control HEK cells were screened. DMSO serially diluted into the growth medium served as the vehicle control. Cell culture supernatants containing the SEAP reporter were collected after an incubation period of 16-20 hours in a cell culture incubator (37° C. and 5% CO2), and either analyzed immediately or stored at −80° C. SEAP levels were measured using the colorimetric enzyme assay (QUANTI-BLUE (InvivoGen) according to manufacturer's instructions.
(§4) Specifically, the minimum effective concentration of each compound (micromolar) was determined as the lowest concentration of the compound that produced a SEAP expression response at least 2× greater than that observed with the vehicle control wells.

human TLR8 = biological target: T2, human TLR8 (Homo sapiens, UniProt Q9NR97); test: TLR activation, HEK-BLUE-hTLR8 SEAP reporter cells; type: cell-based; conditions: 16-20 hours, lowest concentration giving SEAP response at least 2x vehicle control, tested 0.01-30 micromolar
T2 construct: host or cells: HEK293 (HEK-BLUE-hTLR8)
T2 sequence (Q9NR97 27-1041): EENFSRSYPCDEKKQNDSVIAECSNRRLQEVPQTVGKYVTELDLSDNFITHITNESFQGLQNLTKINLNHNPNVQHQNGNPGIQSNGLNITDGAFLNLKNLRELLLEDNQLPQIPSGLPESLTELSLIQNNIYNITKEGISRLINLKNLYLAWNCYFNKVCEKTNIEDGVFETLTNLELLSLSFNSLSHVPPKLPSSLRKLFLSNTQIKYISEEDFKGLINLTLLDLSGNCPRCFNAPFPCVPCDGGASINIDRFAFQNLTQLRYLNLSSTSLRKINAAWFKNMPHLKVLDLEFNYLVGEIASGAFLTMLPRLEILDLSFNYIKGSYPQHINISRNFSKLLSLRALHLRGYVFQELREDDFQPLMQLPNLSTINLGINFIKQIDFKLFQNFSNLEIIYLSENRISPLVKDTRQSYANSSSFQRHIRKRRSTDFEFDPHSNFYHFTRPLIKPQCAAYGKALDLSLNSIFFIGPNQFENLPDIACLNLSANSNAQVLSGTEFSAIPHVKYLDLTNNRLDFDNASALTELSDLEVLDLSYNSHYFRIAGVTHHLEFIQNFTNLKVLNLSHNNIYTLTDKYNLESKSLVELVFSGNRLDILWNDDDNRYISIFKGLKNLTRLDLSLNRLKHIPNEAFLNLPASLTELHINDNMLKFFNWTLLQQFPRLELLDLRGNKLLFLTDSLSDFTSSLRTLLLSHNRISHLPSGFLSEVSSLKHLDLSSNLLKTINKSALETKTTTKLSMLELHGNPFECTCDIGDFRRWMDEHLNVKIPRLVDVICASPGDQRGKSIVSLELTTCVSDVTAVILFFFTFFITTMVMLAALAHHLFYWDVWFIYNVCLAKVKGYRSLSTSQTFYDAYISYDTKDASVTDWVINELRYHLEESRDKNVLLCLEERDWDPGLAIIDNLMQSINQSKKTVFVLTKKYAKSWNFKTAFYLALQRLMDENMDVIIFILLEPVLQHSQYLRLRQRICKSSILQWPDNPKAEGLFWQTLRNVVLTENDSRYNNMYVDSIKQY
Method: as §1, §2, §3, §4

| MEC to Produce TLR Activation: TLR 7 (human TLR7) [µM] | MEC to Produce TLR Activation: TLR 8 (human TLR8) [µM] | Structure (SMILES) |
| --- | --- | --- |
| 3.3 | >30 | CCC(O)(CC)[C@@H](C)n1cnc2c(N)nc3ccccc3c21 [Example 19, (2R)-2-(4-aminoimidazo[4,5-c]quinolin-1-yl)-3-ethyl-pentan-3-ol] |
| 3.3 | >30 | C[C@@H](n1cnc2c(N)nc3ccccc3c21)C(C)(C)F [Example 20, 1-[(1R)-2-fluoro-1,2-dimethyl-propyl]imidazo[4,5-c]quinolin-4-amine] |
| >30 | >30 | C[C@H](n1cnc2c(N)nc3ccccc3c21)C(C)(C)F [Example 21, 1-[(1S)-2-fluoro-1,2-dimethyl-propyl]imidazo[4,5-c]quinolin-4-amine] |
